From patent US11999737B2, “Kinase inhibitors and related methods of use” (Duke University, priority 2014, dated 2024) come the findings set out here.

In assay [1] the test system is RLC20 phosphorylation. Briefly: RLC20 phosphorylation in serum-starved aortic smooth muscle cells. It counts as cell-based, mouse. As to conditions: 30 min. The method, then: A, Typical myograph force trace showing the effect of HS38 on intact mouse aorta contractility. The maximum contractile force of PE-induced contraction was reduced by approximately 30% when HS38 (10 μM) was added five minutes prior to PE addition and by approximately 40% when added ten minutes after PE addition. B, Serum-starved aortic SM cells were treated with SIP (0.25 μM) and HS-38 (±50 μM) for 30 min.
For Western blots, tissues and cultured cells were lysed in 1% SDS, NaCl (300 mM), Tris-HCl (50 mM, pH 7.5), subjected to SDS-PAGE, transferred to polyvinylidene difluoride membrane (Millipore) and visualized using the Odyssey System (Li-Cor). For Odyssey imaging, the membranes were blocked with Odyssey Blocking Buffer and then subjected to anti-MYPT1 (1:2,000) (BD Transduction), phospho-MYPT1 (Thr696) (1:1,000) (Millipore), RLC20 (1:2000) (Sigma) and phospho-RLC20 (1:1000) (Cell Signaling Technology) antibodies. Antibodies were diluted in appropriate blocking buffer. The membranes were washed in TBS with 0.05% Tween 20. Primary antibodies were visualized using secondary antibodies conjugated to Alexa 680 (Invitrogen) or IRDye800 (Li-Cor).
Cell Culture: Mouse aortic SM cells were prepared. The cell line was cultured in AmnioMax medium (Gibco) supplemented with 10% embryonic stem cell-qualified fetal bovine serum (Invitrogen) and penicillin-streptomycin (Invitrogen). […]

Assay [2] has as its system rat caudal arterial smooth muscle (RTA). Briefly: Calyculin A-induced contraction of rat caudal arterial smooth muscle (RTA) strips. The procedure: Tissue preparation and Force Measurement for RTA smooth muscle: Caudal arteries were removed from male Sprague-Dawley rats (300-350 g) that had been anesthetized and euthanized according to protocols approved by the University of Calgary Animal Care and Use Committee. The arteries were cleaned of excess adventitia, de-endothelialized and cut into helical strips (1.5 mm×6 mm). Muscle strips were mounted on a Grass isometric force transducer (FT03C), and force was recorded. Intact tissues were treated with calyculin A (CLa, […]). At selected sampling points, muscle strips were flash-frozen in 10% (w/v) TCA, 10 mM DTT in acetone followed by 3×10 s washes in 10 mM DTT in acetone. Tissues were then lyophilized overnight. Protein was extracted from each arterial strip by incubation (16 h, 5° C.) in 0.5 mL of SDS-PAGE sample buffer.
In this case, calyculin A (CLa, 10^−7M)-induced contractions were used since inhibition of myosin phosphatase activity in RTA unmasks endogenous Ca^2+-independent LC20 kinase activities, including ZIPK. Experiments were performed with addition of inhibitors for ROK (HA-1152, 10^−6 M; GSK429286A, 10^−5M) in combination with HS-38. Combining ROK and ZIPK inhibitors had no effect on Ca^2+-sensitization (force generation or downstream ZIPK target phosphorylation).
Data were collected for RTA smooth muscle contraction in the presence and absence of HS-38, including measurements of contractile force development, and the concentration dependency of these effects. […] The t1/2 max value is defined as the time required for contractile force to reach 50% of maximal tone.
The latency period, i.e. the time from addition of calyculin A to the onset of contraction, and the half-time from the initiation of contraction to the plateau of the contractile response, were determined, in addition to the t1/2 values (the half-time from addition of calyculin A to the plateau of the contractile response) determined previously, in the absence and presence of HS-38. […] On the other hand, the steady-state level of force induced by calyculin A was unaffected by ZIPK inhibition. The results support the ability of HS38 to suppress the initiation and rate of contractile tone without altering the total force potential of the muscle.

The subject of assay [3] is spontaneous hypertensive rat (SHR). Briefly: HS-38 treatment of spontaneous hypertensive rats, vessel properties. In kind it is in vivo. The method, then: The myogenic response and ZIP-dependency of pressure autoregulation were assessed. Two age groups, 8-10 weeks and 18-20 weeks, were used to permit identification of age-dependent alterations in myogenic responses associated with the onset of diabetes/hypertension and after the diseases had become fully established. Two rat models were used, spontaneous hypertensive rat(SHR) model, and Goto-Kakizaki (GK) rat model of type 2 diabetes (T2D). […] HS-38 treatment attenuated myogenic hypercontractility in the cremaster artery of spontaneously-hypertensive rats (SHR; FIG. 33; WKY=Wistar Kyoto rat, control).
No effect of HS38 was observed on the ratio of wall thickness/vessel diameter in the SHR mesenteric artery.

Assay [4] concerns the target T1, DYRK2 (Homo sapiens, UniProt Q92630).
T1 sequence (Q92630 1-601): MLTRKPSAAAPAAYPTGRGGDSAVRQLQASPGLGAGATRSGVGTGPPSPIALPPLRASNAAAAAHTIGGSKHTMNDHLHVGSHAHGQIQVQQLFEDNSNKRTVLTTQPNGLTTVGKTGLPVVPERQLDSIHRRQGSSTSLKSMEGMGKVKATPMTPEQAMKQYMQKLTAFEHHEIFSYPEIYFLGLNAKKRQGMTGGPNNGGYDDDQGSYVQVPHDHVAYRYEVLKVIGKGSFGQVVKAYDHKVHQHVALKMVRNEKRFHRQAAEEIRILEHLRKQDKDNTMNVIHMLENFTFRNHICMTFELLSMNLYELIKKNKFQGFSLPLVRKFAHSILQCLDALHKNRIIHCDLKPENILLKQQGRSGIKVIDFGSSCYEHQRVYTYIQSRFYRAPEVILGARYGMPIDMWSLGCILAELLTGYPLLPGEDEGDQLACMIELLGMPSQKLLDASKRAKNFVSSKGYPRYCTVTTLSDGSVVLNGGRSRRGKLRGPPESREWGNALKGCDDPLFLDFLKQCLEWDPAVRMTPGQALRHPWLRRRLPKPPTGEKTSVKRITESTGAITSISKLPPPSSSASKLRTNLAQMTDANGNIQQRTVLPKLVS
Briefly: 33P-ATP filter-binding kinase assay.

Regarding `CC(Sc1nc2c(cnn2-c2cccc(Cl)c2)c(=O)[nH]1)C(N)=O` (stereo not drawn) [HS38], the “RLC20 phosphorylation, basal (unstimulated) state” value in assay [1] (50 μM, p <0.0002, n=8) is recorded as “significantly decreased”. In addition, the “RLC20 phosphorylation, S1P stimulated state” value in assay [1] (S1P 0.25 μM, HS38 50 μM, p <0.004, n=8) is on record as “significantly decreased”. Further, the “contractile force during the Ca2+ sensitization process” value in assay [2] (calyculin A) is “concentration-dependent attenuation”. Moreover, the “t1/2max; time to reach 50% of maximal contractile force” value in assay [2] (calyculin A 10^−7 M, increasing concentrations of HS-38) is on record as “concentration-dependent increases”. Also, in assay [2] (calyculin A with HS-38, n = 28, mean ± SEM), the “Latency (s)” value is recorded as “*654.7 ± 60.6 s”. Also, the “% KCl contraction” value in assay [2] (steady-state force, calyculin A with HS-38, n = 28, mean ± SEM) is recorded as “**161.7 ± 8.4%”. Moreover, in assay [3] (HS-38 treatment), the circumferential strain entry is “increased” and the “vessel narrowing seen in hypertension” value is given as “partially reversed”. The “myogenic hypercontractility in the cremaster artery” value in assay [3] (HS-38 treatment, SHR) was “attenuated”. Further, the “ratio of wall thickness/vessel diameter” value in assay [3] (SHR mesenteric artery) is reported as “No effect”. The same compound showed an IC50 in assay [4] (mean ± S.D., n = 2) of 1800 ± 600 nM. Also, the activity at 10 µM in assay [4] (read-out: % Activity (10 μM HS38)) turned out to be 21%.

By IC50 is commonly meant the concentration that inhibits the measured activity by half. Read a low IC50 as greater potency in that assay.
